The subject of this experiment is L1210 leukemia ip in BDF1 mice, survival T/C. The experiment can be described thus: NCI In Vivo Anticancer Drug Screen. Data for tumor model L1210 Leukemia (intraperitoneal) in B6D2F1 (BDF1) mice. Conditions: endpoint: mean survival time, higher = longer survival. The method in brief: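 Value reflects the ratio of survival in compound-treated mice to survival in vehicle-treated controls, with both groups carrying the same transplanted tumor.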

Setting [1] is: dose: 100.0 mg/kg/injection, schedule: Q04DX003 (ip), vehicle: Klucel (hydroxypropylcellulose) (HPC).
Setting [2] is: dose: 200.0 mg/kg/injection, schedule: Q04DX003 (ip), vehicle: Klucel (hydroxypropylcellulose) (HPC).
The mark [3] stands for this setting: dose: 100.0 mg/kg/injection, schedule: Q01DX009 (ip), vehicle: Klucel (hydroxypropylcellulose) (HPC).
Setting [4] is: dose: 200.0 mg/kg/injection, schedule: Q01DX009 (ip), vehicle: Klucel (hydroxypropylcellulose) (HPC).
[5] abbreviates: dose: 400.0 mg/kg/injection, schedule: Q01DX009 (ip), vehicle: Klucel (hydroxypropylcellulose) (HPC).
[6] abbreviates: dose: 400.0 mg/kg/injection, schedule: Q04DX003 (ip), vehicle: Klucel (hydroxypropylcellulose) (HPC).
Where [7] appears, read: dose: 50.0 mg/kg/injection, schedule: Q04DX003 (ip), vehicle: Klucel (hydroxypropylcellulose) (HPC).
Where [8] appears, read: dose: 100.0 mg/kg/injection, schedule: Q01DX001 (ip), vehicle: saline.
[9] abbreviates: dose: 200.0 mg/kg/injection, schedule: Q01DX001 (ip), vehicle: saline.
[10] abbreviates: dose: 400.0 mg/kg/injection, schedule: Q01DX001 (ip), vehicle: saline.

T/C data for 18 molecules are collected here from PubChem BioAssay AID248 (DTP/NCI, 2004).

Where “and” joins values, the source holds several entries; their conditions need not be identical. Equal entries are not always repeated. Inconclusive results and toxic doses are left out.

With `O=C(O)COc1ccccc1-c1ccccc1Cl`, the T/C is, setting by setting: under setting [1], 98 % of control; under setting [2], 90 % of control.
`CCOC(=O)C(c1ccsc1)C(C(=O)OCC)c1cccs1` (stereo not drawn): the T/C reads like this: (dose: 100.0 mg/kg/injection, schedule: Q01DX001 (ip), vehicle: saline with Tween-80) 92 % of control; (dose: 200.0 mg/kg/injection, schedule: Q01DX001 (ip), vehicle: saline with Tween-80) 98 % of control; (dose: 400.0 mg/kg/injection, schedule: Q01DX001 (ip), vehicle: saline with Tween-80) 92 % of control.
With `CCCCCOc1ccc(C(=O)CC(=O)OCC)cc1`, the T/C runs as follows: under setting [3], 98 % of control; under setting [1], 93 % of control; under setting [4], 104 % of control; under setting [2], 95 % of control; under setting [5], 93 % of control; under setting [6], 93 % of control.
For the molecule `CCOC(=O)c1[nH]c2ccccc2c1CN(CC)CC`, the T/C (dose: 75.0 mg/kg/injection, schedule: Q01DX001 (ip), vehicle: carboxymethylcellulose (CMC)) is 94 % of control.
For `CN(C(=O)Cl)c1ccccc1`, the T/C by setting is: (dose: 12.5 mg/kg/injection, schedule: Q01DX009 (ip), vehicle: Klucel (hydroxypropylcellulose) (HPC)) 95 % of control; (dose: 12.5 mg/kg/injection, schedule: Q04DX003 (ip), vehicle: Klucel (hydroxypropylcellulose) (HPC)) 95 % of control; (dose: 25.0 mg/kg/injection, schedule: Q01DX009 (ip), vehicle: Klucel (hydroxypropylcellulose) (HPC)) 95 % of control; (dose: 25.0 mg/kg/injection, schedule: Q04DX003 (ip), vehicle: Klucel (hydroxypropylcellulose) (HPC)) 97 % of control; (dose: 50.0 mg/kg/injection, schedule: Q01DX009 (ip), vehicle: Klucel (hydroxypropylcellulose) (HPC)) 93 % of control; under setting [7], 93 % of control.
Turning to `CC1(C)N=C(N)N=C(N)N1c1ccc(OCCOc2ccc(S(=O)(=O)F)cc2)c(Cl)c1`, the T/C (dose: 33.0 mg/kg/injection, schedule: Q04DX003 (ip), vehicle: Klucel (hydroxypropylcellulose) (HPC)) was 102 % of control; the T/C (dose: 33.0 mg/kg/injection, schedule: Q04DX003 (ip), vehicle: saline sonified) is 117 % of control; the T/C (dose: 50.0 mg/kg/injection, schedule: Q01DX009 (ip), vehicle: saline sonified) was 152 % of control; the T/C under setting [7] is 112 % of control; the T/C (dose: 75.0 mg/kg/injection, schedule: Q04DX003 (ip), vehicle: Klucel (hydroxypropylcellulose) (HPC)) was 112 % of control; the T/C (dose: 75.0 mg/kg/injection, schedule: Q04DX003 (ip), vehicle: saline sonified) was 113 % of control. The T/C by setting is: (dose: 100.0 mg/kg/injection, schedule: Q01DX009 (ip), vehicle: saline sonified) 109 % of control; (dose: 100.0 mg/kg/injection, schedule: Q04DX003 (ip), vehicle: other) 96 % of control; (dose: 200.0 mg/kg/injection, schedule: Q04DX003 (ip), vehicle: other) 103 % of control; (dose: 400.0 mg/kg/injection, schedule: Q04DX003 (ip), vehicle: other) 96 % of control.
Regarding `c1cc2cc(c1)CCc1cccc(c1)CC2`, the T/C is, setting by setting: under setting [8], 100 % of control; under setting [9], 106 % of control; under setting [10], 94 % of control.
Consider `CCNC(C)(C)C(SS)c1ccc(Br)cc1` (stereo not drawn), for which the T/C is 98 % of control (dose: 6.25 mg/kg/injection, schedule: Q01DX009 (ip), vehicle: water); 96 % of control (dose: 12.5 mg/kg/injection, schedule: Q01DX009 (ip), vehicle: water); 94 % of control (dose: 25.0 mg/kg/injection, schedule: Q01DX009 (ip), vehicle: water); 94 % of control and 91 % of control (dose: 50.0 mg/kg/injection, schedule: Q01DX009 (ip), vehicle: water); 101 % of control (dose: 100.0 mg/kg/injection, schedule: Q01DX009 (ip), vehicle: water); 93 % of control (dose: 200.0 mg/kg/injection, schedule: Q01DX009 (ip), vehicle: water). For the setting “dose: 400.0 mg/kg/injection, schedule: Q01DX009 (ip), vehicle: water”, the T/C is 93 % of control.
For `CC1CCC2(OC1)OC1C(O)C3C4CCC5CC(OC6OC(CO)C(OC7OC(CO)C(O)C(OC8OCC(O)C(O)C8O)C7OC7OC(CO)C(O)C(OC8OC(CO)C(O)C(O)C8O)C7O)C(O)C6O)C(O)CC5(C)C4CCC3(C)C1C2C` (stereo not drawn), the T/C (dose: 25.0 mg/kg/injection, schedule: Q01DX001 (ip), vehicle: saline with Tween-80) is 93 % of control.
For the molecule `CCNC(=O)c1cc(NC(=O)Nc2ccc(C3=NCCN3)cc2)cc(NC(=O)Nc2ccc(C3=NCCN3)cc2)c1`, the T/C runs as follows: (dose: 62.0 mg/kg/injection, schedule: Q01DX Z (ip), vehicle: carboxymethylcellulose (CMC)) 102 % of control; (dose: 125.0 mg/kg/injection, schedule: Q01DX Z (ip), vehicle: carboxymethylcellulose (CMC)) 103 % of control; (dose: 250.0 mg/kg/injection, schedule: Q01DX Z (ip), vehicle: carboxymethylcellulose (CMC)) 107 % of control; (dose: 500.0 mg/kg/injection, schedule: Q01DX Z (ip), vehicle: carboxymethylcellulose (CMC)) 102 % of control.
For the molecule `CC(=NC1CCCCC1)Nc1ccc(NC(=O)c2ccc(C(=O)Nc3ccc(NC(C)=NC4CCCCC4)cc3)cc2)cc1`, the T/C by setting is: (dose: 15.0 mg/kg/injection, schedule: Q01DX Z (ip), vehicle: carboxymethylcellulose (CMC)) 92 % of control; (dose: 30.0 mg/kg/injection, schedule: Q01DX Z (ip), vehicle: carboxymethylcellulose (CMC)) 93 % of control; (dose: 60.0 mg/kg/injection, schedule: Q01DX Z (ip), vehicle: carboxymethylcellulose (CMC)) 96 % of control.
As for `CCOCCOCCOC(C)Oc1ccccc1` (stereo not drawn), the T/C is 104 % of control (dose: 100.0 mg/kg/injection, schedule: Q04DX002 (ip), vehicle: saline); 111 % of control (dose: 200.0 mg/kg/injection, schedule: Q04DX002 (ip), vehicle: saline); 104 % of control (dose: 400.0 mg/kg/injection, schedule: Q04DX002 (ip), vehicle: saline).
For `COc1ccccc1CN1CCCN(Cc2ccccc2OC)C1c1cc(Cl)ccc1O`, the T/C was 101 % of control (dose: 50.0 mg/kg/injection, schedule: Q01DX001 (ip), vehicle: saline); 95 % of control under setting [8]; 97 % of control under setting [9]; 101 % of control under setting [10].
For `Cn1c(=O)c2n[se]nc2n(C)c1=O`, the T/C is 91 % of control (dose: 3.12 mg/kg/injection, schedule: Q01DX009 (ip), vehicle: Klucel (hydroxypropylcellulose) (HPC)); 102 % of control (dose: 3.12 mg/kg/injection, schedule: Q04DX002 (ip), vehicle: Klucel (hydroxypropylcellulose) (HPC)); 94 % of control (dose: 6.25 mg/kg/injection, schedule: Q01DX009 (ip), vehicle: Klucel (hydroxypropylcellulose) (HPC)); 105 % of control (dose: 6.25 mg/kg/injection, schedule: Q04DX002 (ip), vehicle: Klucel (hydroxypropylcellulose) (HPC)); 108 % of control and 111 % of control (dose: 12.5 mg/kg/injection, schedule: Q04DX002 (ip), vehicle: Klucel (hydroxypropylcellulose) (HPC)); 108 % of control (dose: 25.0 mg/kg/injection, schedule: Q04DX002 (ip), vehicle: Klucel (hydroxypropylcellulose) (HPC)).
Take `O=C(c1ccccc1)c1ccc(-c2ccccc2)cc1`: the T/C by setting is: (dose: 87.5 mg/kg/injection, schedule: Q04DX003 (ip), vehicle: Klucel (hydroxypropylcellulose) (HPC)) 97 % of control; (dose: 175.0 mg/kg/injection, schedule: Q04DX003 (ip), vehicle: Klucel (hydroxypropylcellulose) (HPC)) 95 % of control; (dose: 350.0 mg/kg/injection, schedule: Q04DX003 (ip), vehicle: Klucel (hydroxypropylcellulose) (HPC)) 97 % of control.
Take `COc1c(Cl)c(C)c(Cl)c(C)c1C#CC(=O)O`: the T/C is 92 % of control (dose: 100.0 mg/kg/injection, schedule: Q01DX001 (ip), vehicle: Klucel (hydroxypropylcellulose) (HPC)); 95 % of control under setting [1]; 97 % of control (dose: 200.0 mg/kg/injection, schedule: Q01DX001 (ip), vehicle: Klucel (hydroxypropylcellulose) (HPC)); 92 % of control under setting [2]; 101 % of control (dose: 400.0 mg/kg/injection, schedule: Q01DX001 (ip), vehicle: Klucel (hydroxypropylcellulose) (HPC)).
On to `CC(=O)C1CCC2C3=CC=C4CC(O)CCC4(C)C3=CCC12C` (stereo not drawn), for which the T/C is 96 % of control under setting [1], 93 % of control under setting [2] and 93 % of control under setting [6].
Turning to `O=C(NC1CCCCC1)N(C1CCCCC1)C1CCCCC1`, the T/C was 90 % of control under setting [3], 103 % of control under setting [4] and 92 % of control under setting [5].
